Source: the supplement of paper PMC10307832

Legend:
Test in all cases: relative viability (nuclei count vs DMSO), 5 days (fraction); higher = more cells survive
[1] = compound: OCc1c[nH]c2ccccc12 [Indole-3-carbinol] + Cc1nc(NC(=O)N2CCC[C@H]2C(N)=O)sc1-c1ccnc(C(C)(C)C(F)(F)F)c1 [Alpelisib] (partner 2 µM)
In short: (§1)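 Dosing by pin tool came one day after lung cancer cell lines were seeded in 1536-well plates, using either one drug or a fixed anchor-drug dose plus five library-drug doses (not always all listed) in √10 steps. After 5 days, nuclei were counted on 4× images. Relative viability is treated-well nuclei count divided by vehicle-well nuclei count, and values are medians of duplicate plates.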

[2] = compound: OCc1c[nH]c2ccccc12 [Indole-3-carbinol] + Nc1ncn([C@H]2C[C@H](O)[C@@H](CO)O2)c(=O)n1 [Decitabine] (partner 2 µM)
In short: as §1

[3] = compound: OCc1c[nH]c2ccccc12 [Indole-3-carbinol] + COc1cc2c(Oc3ccc(NC(=O)C4(C(=O)Nc5ccc(F)cc5)CC4)cc3F)ccnc2cc1OCCCN1CCOCC1 [Foretinib] (partner 0.25 µM)
In short: as §1

[4] = compound: OCc1c[nH]c2ccccc12 [Indole-3-carbinol] + COc1cccc2cc(-c3nc([C@H]4CC[C@H](C(=O)O)CC4)n4ncnc(N)c34)[nH]c12 [OSI-027] (partner 0.5 µM)
In short: as §1

[5] = compound: OCc1c[nH]c2ccccc12 [Indole-3-carbinol] + CCNC(=O)c1noc(-c2cc(C(C)C)c(O)cc2O)c1-c1ccc(CN2CCOCC2)cc1 [Luminespib] (partner 0.01 µM)
In short: as §1

What does the source list for NCI-H1944?
relative viability ([1]; first compound 0.253 µM): 0.871; relative viability ([1]; first compound 0.8 µM): 0.805; relative viability ([1]; first compound 2.53 µM): 0.725; relative viability ([1]; first compound 8 µM): 0.822; relative viability ([2]; first compound 0.253 µM): 0.46; relative viability ([2]; first compound 0.8 µM): 0.456; relative viability ([2]; first compound 2.53 µM): 0.441; relative viability ([2]; first compound 8 µM): 0.404; relative viability ([3]; first compound 0.253 µM): 0.876; relative viability ([3]; first compound 0.8 µM): 0.775; relative viability ([3]; first compound 2.53 µM): 0.846; relative viability ([3]; first compound 8 µM): 0.77; relative viability ([4]; first compound 0.253 µM): 0.375; relative viability ([4]; first compound 0.8 µM): 0.378; relative viability ([4]; first compound 2.53 µM): 0.369; relative viability ([4]; first compound 8 µM): 0.363; relative viability ([5]; first compound 0.253 µM): 0.792; relative viability ([5]; first compound 0.8 µM): 0.682; relative viability ([5]; first compound 2.53 µM): 0.842; relative viability ([5]; first compound 8 µM): 0.79

With NCI-H2023 as the cell line, how does the relative viability ([1]; first compound 0.253 µM) read?
The relative viability was 0.587.

And the relative viability ([1]; first compound 0.8 µM)?
Its relative viability is 0.587.

And the relative viability ([1]; first compound 2.53 µM)?
The relative viability was 0.592.

And the relative viability ([1]; first compound 8 µM)?
Its relative viability is 0.626.

What about the relative viability ([2]; first compound 0.253 µM) of the same cell line?
Its relative viability is 0.213.

What about the relative viability ([2]; first compound 0.8 µM) of the same cell line?
Its relative viability is 0.213.

And the relative viability ([2]; first compound 2.53 µM)?
Its relative viability is 0.212.

And the relative viability ([2]; first compound 8 µM)?
The relative viability was 0.198.

And the relative viability ([3]; first compound 0.253 µM)?
Its relative viability is 0.978.

And the relative viability ([3]; first compound 0.8 µM)?
The relative viability was 0.971.

What about the relative viability ([3]; first compound 2.53 µM) of the same cell line?
The relative viability was 0.822.

What about the relative viability ([3]; first compound 8 µM) of the same cell line?
Its relative viability is 0.916.

What about the relative viability ([4]; first compound 0.253 µM) of the same cell line?
The relative viability was 0.406.

And the relative viability ([4]; first compound 0.8 µM)?
Its relative viability is 0.405.

What about the relative viability ([4]; first compound 2.53 µM) of the same cell line?
The relative viability was 0.438.

And the relative viability ([4]; first compound 8 µM)?
Its relative viability is 0.398.

And the relative viability ([5]; first compound 0.253 µM)?
The relative viability was 0.526.

What about the relative viability ([5]; first compound 0.8 µM) of the same cell line?
The relative viability was 0.751.

And the relative viability ([5]; first compound 2.53 µM)?
The relative viability was 0.818.

And the relative viability ([5]; first compound 8 µM)?
Its relative viability is 0.707.

Which results are given for NCI-H1395?
relative viability ([1]; first compound 0.253 µM): 1.31; relative viability ([1]; first compound 0.8 µM): 0.984; relative viability ([1]; first compound 2.53 µM): 0.983; relative viability ([1]; first compound 8 µM): 1.02; relative viability ([2]; first compound 0.253 µM): 0.723; relative viability ([2]; first compound 0.8 µM): 0.771; relative viability ([2]; first compound 2.53 µM): 0.695; relative viability ([2]; first compound 8 µM): 0.685; relative viability ([3]; first compound 0.253 µM): 0.818; relative viability ([3]; first compound 0.8 µM): 1.1; relative viability ([3]; first compound 2.53 µM): 0.97; relative viability ([3]; first compound 8 µM): 0.914; relative viability ([4]; first compound 0.253 µM): 0.738; relative viability ([4]; first compound 0.8 µM): 0.606; relative viability ([4]; first compound 2.53 µM): 0.637; relative viability ([4]; first compound 8 µM): 0.613; relative viability ([5]; first compound 0.253 µM): 0.606; relative viability ([5]; first compound 0.8 µM): 0.813; relative viability ([5]; first compound 2.53 µM): 0.817; relative viability ([5]; first compound 8 µM): 0.686

How did the relative viability ([1]; first compound 0.253 µM) turn out when NCI-H2087 was run?
The relative viability was 0.807.

And the relative viability ([1]; first compound 0.8 µM)?
Its relative viability is 1.15.

What about the relative viability ([1]; first compound 2.53 µM) of the same cell line?
Its relative viability is 1.01.

And the relative viability ([1]; first compound 8 µM)?
The relative viability was 0.942.

And the relative viability ([2]; first compound 0.253 µM)?
The relative viability was 0.278.

And the relative viability ([2]; first compound 0.8 µM)?
The relative viability was 0.323.

What about the relative viability ([2]; first compound 2.53 µM) of the same cell line?
Its relative viability is 0.255.

And the relative viability ([2]; first compound 8 µM)?
The relative viability was 0.341.

What about the relative viability ([3]; first compound 0.253 µM) of the same cell line?
The relative viability was 1.08.

What about the relative viability ([3]; first compound 0.8 µM) of the same cell line?
Its relative viability is 1.47.

And the relative viability ([3]; first compound 2.53 µM)?
The relative viability was 1.18.

What about the relative viability ([3]; first compound 8 µM) of the same cell line?
The relative viability was 1.13.

And the relative viability ([4]; first compound 0.253 µM)?
The relative viability was 0.435.

What about the relative viability ([4]; first compound 0.8 µM) of the same cell line?
The relative viability was 0.644.

And the relative viability ([4]; first compound 2.53 µM)?
The relative viability was 0.571.

And the relative viability ([4]; first compound 8 µM)?
The relative viability was 0.513.

And the relative viability ([5]; first compound 0.253 µM)?
Its relative viability is 0.119.

And the relative viability ([5]; first compound 0.8 µM)?
Its relative viability is 0.194.

And the relative viability ([5]; first compound 2.53 µM)?
Its relative viability is 0.177.

What about the relative viability ([5]; first compound 8 µM) of the same cell line?
The relative viability was 0.172.

How did the relative viability ([1]; first compound 0.253 µM) turn out when NCI-H838 was run?
The relative viability was 1.04.

What about the relative viability ([1]; first compound 0.8 µM) of the same cell line?
Its relative viability is 1.05.

What about the relative viability ([1]; first compound 2.53 µM) of the same cell line?
Its relative viability is 1.01.

And the relative viability ([1]; first compound 8 µM)?
The relative viability was 0.975.

And the relative viability ([2]; first compound 0.253 µM)?
The relative viability was 0.486.

And the relative viability ([2]; first compound 0.8 µM)?
The relative viability was 0.498.

And the relative viability ([2]; first compound 2.53 µM)?
The relative viability was 0.518.

And the relative viability ([2]; first compound 8 µM)?
The relative viability was 0.434.

And the relative viability ([3]; first compound 0.253 µM)?
The relative viability was 0.997.

What about the relative viability ([3]; first compound 0.8 µM) of the same cell line?
The relative viability was 0.985.

What about the relative viability ([3]; first compound 2.53 µM) of the same cell line?
The relative viability was 1.01.

What about the relative viability ([3]; first compound 8 µM) of the same cell line?
Its relative viability is 1.02.

And the relative viability ([4]; first compound 0.253 µM)?
Its relative viability is 0.344.

And the relative viability ([4]; first compound 0.8 µM)?
Its relative viability is 0.311.

And the relative viability ([4]; first compound 2.53 µM)?
The relative viability was 0.416.

What about the relative viability ([4]; first compound 8 µM) of the same cell line?
Its relative viability is 0.386.

And the relative viability ([5]; first compound 0.253 µM)?
Its relative viability is 0.292.

What about the relative viability ([5]; first compound 0.8 µM) of the same cell line?
Its relative viability is 0.305.

What about the relative viability ([5]; first compound 2.53 µM) of the same cell line?
The relative viability was 0.308.

And the relative viability ([5]; first compound 8 µM)?
Its relative viability is 0.303.

Which results are given for NCI-H1793?
relative viability ([1]; first compound 0.253 µM): 0.779; relative viability ([1]; first compound 0.8 µM): 0.768; relative viability ([1]; first compound 2.53 µM): 0.649; relative viability ([1]; first compound 8 µM): 0.754; relative viability ([2]; first compound 0.253 µM): 0.502; relative viability ([2]; first compound 0.8 µM): 0.465; relative viability ([2]; first compound 2.53 µM): 0.472; relative viability ([2]; first compound 8 µM): 0.479; relative viability ([3]; first compound 0.253 µM): 0.728; relative viability ([3]; first compound 0.8 µM): 0.78; relative viability ([3]; first compound 2.53 µM): 0.685; relative viability ([3]; first compound 8 µM): 0.656; relative viability ([4]; first compound 0.253 µM): 0.233; relative viability ([4]; first compound 0.8 µM): 0.251; relative viability ([4]; first compound 2.53 µM): 0.268; relative viability ([4]; first compound 8 µM): 0.31; relative viability ([5]; first compound 0.253 µM): 0.171; relative viability ([5]; first compound 0.8 µM): 0.179; relative viability ([5]; first compound 2.53 µM): 0.142; relative viability ([5]; first compound 8 µM): 0.175

Which results are given for LC-2-ad?
relative viability ([1]; first compound 0.253 µM): 0.91; relative viability ([1]; first compound 0.8 µM): 0.874; relative viability ([1]; first compound 2.53 µM): 0.945; relative viability ([1]; first compound 8 µM): 0.856; relative viability ([2]; first compound 0.253 µM): 0.715; relative viability ([2]; first compound 0.8 µM): 0.883; relative viability ([2]; first compound 2.53 µM): 0.71; relative viability ([2]; first compound 8 µM): 0.774; relative viability ([3]; first compound 0.253 µM): 0.921; relative viability ([3]; first compound 0.8 µM): 0.852; relative viability ([3]; first compound 2.53 µM): 1.05; relative viability ([3]; first compound 8 µM): 0.889; relative viability ([4]; first compound 0.253 µM): 0.888; relative viability ([4]; first compound 0.8 µM): 0.776; relative viability ([4]; first compound 2.53 µM): 0.826; relative viability ([4]; first compound 8 µM): 0.787; relative viability ([5]; first compound 0.253 µM): 1.13; relative viability ([5]; first compound 0.8 µM): 1.15; relative viability ([5]; first compound 2.53 µM): 1.26; relative viability ([5]; first compound 8 µM): 0.953

What does the source list for LOU-NH91?
relative viability ([1]; first compound 0.253 µM): 0.746; relative viability ([1]; first compound 0.8 µM): 0.706; relative viability ([1]; first compound 2.53 µM): 0.703; relative viability ([1]; first compound 8 µM): 0.728; relative viability ([2]; first compound 0.253 µM): 0.827; relative viability ([2]; first compound 0.8 µM): 0.781; relative viability ([2]; first compound 2.53 µM): 0.818; relative viability ([2]; first compound 8 µM): 0.831; relative viability ([3]; first compound 0.253 µM): 0.927; relative viability ([3]; first compound 0.8 µM): 0.964; relative viability ([3]; first compound 2.53 µM): 0.963; relative viability ([3]; first compound 8 µM): 0.924; relative viability ([4]; first compound 0.253 µM): 0.747; relative viability ([4]; first compound 0.8 µM): 0.671; relative viability ([4]; first compound 2.53 µM): 0.722; relative viability ([4]; first compound 8 µM): 0.689; relative viability ([5]; first compound 0.253 µM): 0.369; relative viability ([5]; first compound 0.8 µM): 0.342; relative viability ([5]; first compound 2.53 µM): 0.306; relative viability ([5]; first compound 8 µM): 0.356
